Measurements published in US20230167467A1, “METHODS AND COMPOSITIONS FOR THE PRODUCTION OF ISOBUTENE” (University of Alaska Anchorage, priority 2020, published 2023).

System: Engineered strains of E. coli
Type: cell-based
[1] = after solvent exposure, vs positive control

CCC(C)CC [3-methylpentane]
expression of acid resistance genes (gad, adi families): downregulated
expression of chaperone proteins groLS, spy, and dnaJK: highly upregulated
expression of dihydroxyacetone kinase genes dhaKLM: upregulated
expression of flagellar protein synthesis and assembly genes: downregulated
expression of gadE and adiY: significantly downregulated
expression of galactitol metabolism genes gatABD: upregulated
expression of glpABC (glycerol to glycerone phosphate): upregulated
expression of heat shock proteins and chaperones hslJORUV: strongest increases
expression of ibpAB and clpAB (protein protection and repair): strongest increases
expression of marABC (multiple antibiotic resistance): upregulated
expression of nitrate reductase genes narGHJKP: upregulated
expression of phage shock genes pspABCDE: highly upregulated
change in expression of gene adiA [1]: −2.19 ± 0.86
change in expression of gene adiC [1]: −1.60 ± 1.02
change in expression of gene adiY [1]: −2.88 ± 0.66
change in expression of gene bhsA [1]: 2.98 ± 0.60
change in expression of gene bssR [1]: 1.81 ± 0.44
change in expression of gene bssS [1]: 5.42 ± 0.84
change in expression of gene clpA [1]: 2.69 ± 0.63
change in expression of gene clpB [1]: 5.30 ± 0.69
change in expression of gene clpP [1]: 1.74 ± 0.59
change in expression of gene coaA [1]: −1.35 ± 0.88
change in expression of gene coaD [1]: 1.13 ± 0.90
change in expression of gene cspA [1]: −4.58 ± 0.58
change in expression of gene cspB [1]: −4.38 ± 1.31
change in expression of gene cspC [1]: −2.37 ± 0.90
change in expression of gene cspD [1]: 2.53 ± 0.57
change in expression of gene cspE [1]: −0.36 ± 0.63
change in expression of gene cspF [1]: −3.22 ± 1.04
change in expression of gene dhaK [1]: 4.32 ± 0.58
change in expression of gene dhaL [1]: 3.43 ± 0.62
change in expression of gene dnaJ [1]: 5.07 ± 0.69
change in expression of gene dnaK [1]: 4.55 ± 0.66
change in expression of gene fabA [1]: −0.74 ± 0.75
change in expression of gene fabB [1]: 2.87 ± 0.66
change in expression of gene fabD [1]: −0.97 ± 0.52
change in expression of gene flgA [1]: −1.37 ± 1.53
change in expression of gene flgB [1]: −3.25 ± 1.50
change in expression of gene flgC [1]: −4.33 ± 1.93
change in expression of gene flgD [1]: −3.56 ± 1.87
change in expression of gene flgE [1]: −2.72 ± 1.17
change in expression of gene flgF [1]: −2.66 ± 1.57
change in expression of gene flgG [1]: −3.06 ± 1.48
change in expression of gene flgH [1]: −2.28 ± 1.70
change in expression of gene gabD [1]: 0.24 ± 1.31
change in expression of gene gabP [1]: 1.14 ± 1.28
change in expression of gene gabT [1]: 0.62 ± 1.27
change in expression of gene gadA [1]: −1.66 ± 0.69
change in expression of gene gadB [1]: −1.26 ± 0.80
change in expression of gene gadC [1]: −0.31 ± 0.80
change in expression of gene gadE [1]: −2.58 ± 0.60
change in expression of gene gadW [1]: −2.78 ± 0.95
change in expression of gene gadX [1]: −2.92 ± 0.57
change in expression of gene gadY [1]: −4.93 ± 0.81
change in expression of gene glpA [1]: 8.12 ± 0.87
change in expression of gene glpB [1]: 5.89 ± 0.63
change in expression of gene glpC [1]: 6.69 ± 0.79
change in expression of gene groL [1]: 4.27 ± 0.57
change in expression of gene groS [1]: 4.18 ± 0.50
change in expression of gene hchA [1]: 1.65 ± 0.60
change in expression of gene hslJ [1]: 2.40 ± 0.65
change in expression of gene hslO [1]: 3.37 ± 0.64
change in expression of gene hslR [1]: 3.53 ± 0.65
change in expression of gene hslU [1]: 3.65 ± 0.55
change in expression of gene hslV [1]: 3.32 ± 0.61
change in expression of gene ibpA [1]: 8.01 ± 1.21
change in expression of gene ibpB [1]: 9.01 ± 1.50
change in expression of gene lhgO [1]: 1.21 ± 1.64
change in expression of gene lipA [1]: 0.26 ± 0.60
change in expression of gene lipB [1]: 0.71 ± 0.63
change in expression of gene narG [1]: 4.24 ± 0.65
change in expression of gene narH [1]: 3.41 ± 0.61
change in expression of gene narI [1]: 2.28 ± 0.92
change in expression of gene narJ [1]: 2.34 ± 0.68
change in expression of gene narK [1]: 2.75 ± 0.84
change in expression of gene potA [1]: −2.43 ± 0.80
change in expression of gene potB [1]: −0.51 ± 1.28
change in expression of gene potC [1]: −0.27 ± 1.18
change in expression of gene pspA [1]: 9.23 ± 0.55
change in expression of gene pspB [1]: 7.09 ± 0.68
change in expression of gene rpoA [1]: 0.54 ± 0.44
change in expression of gene rpoB [1]: 0.33 ± 0.40
change in expression of gene rpoC [1]: 0.70 ± 0.39
change in expression of gene rpoD [1]: 3.38 ± 0.70
change in expression of gene rpoE [1]: −2.07 ± 0.62
change in expression of gene rpoH [1]: 0.71 ± 0.52
change in expression of gene rpoN [1]: −1.28 ± 0.49
change in expression of gene rpoS [1]: 0.53 ± 0.47
change in expression of gene rpoZ [1]: −1.07 ± 0.53
change in expression of gene spy [1]: 4.73 ± 0.87
change in expression of gene tatA [1]: −1.05 ± 0.51
change in expression of gene tatB [1]: −0.93 ± 0.58
change in expression of gene tatC [1]: −0.35 ± 1.08
change in expression of gene tatD [1]: −1.73 ± 1.12
change in expression of gene tatE [1]: 0.79 ± 0.63
number of genes with significant changes in expression (vs control, Bon Ferroni corrected p-value<0.05): 414 genes
